Results from patent US11517019B2, “Microbicidal system” (priority 2020, dated 2022).
“Also recorded” adds a separate entry of the source. Where two headings read alike, the source gives them in different places.

Assays:
[1] = Dissolution of CX powder in 140° F. municipal water
[2] = ambient temperature; third-party reports; cited from earlier work
Lp1 = assay type: cell-based, Legionella pneumophila; conditions: ~9×10^6 CFU/mL
[3] = test system: gram-positive and gram-negative bacteria; conditions: cited from earlier work
[4] = 50 mg CX powder in 1 liter 140° F. (60° C.) municipal water

[H]/N=C(\N/C(=N/[H])NCCCCCCNC(=N)NC(=N)Nc1ccc(Cl)cc1)Nc1ccc(Cl)cc1 [CX, N,N″″1,6-Hexanediylbis[N-(4-chlorophenyl) (imidodicarbonimidic diamide)]]
saturation level of CX approached [1, 4]: ~1 mg/L | time to approach saturation level [1, 4]: ≤ 10 s | portion of the powder dissolved ([1]; 50 mg in 1 liter 140° F. water, up to 20 minutes of exposure): under 2 weight percent | chloroaniline (CA) isomers detectable in the water ([1]; CX in 140° F. water): no isomer of CA was detectable; also recorded: No chloroani line impurities were detectable | solubility in water [2]: ca. 80 mg/100 mL | cell count reduction (Lp1; 4.5 g solid CX in 800 mL, first 30 seconds): ~0.3 log | cell count reduction (Lp1; 12 g solid CX in 800 mL, 2-minute reaction period): ~4.8 log | time of uptake into bacterial cells ([3]; aqueously dissolved form): ≤ 20 s | persistence of activity ([3]; bound to proteins on skin, mucosa, mouth tissue and teeth): ≥ 48 h | time to kill virtually all gram-positive and gram-negative bacteria ([3]; in vitro): ≤ 30 s
